Target: T1, hQ23 (HEK-293 cell line stably transfected with one of the members of the KCNQ family) (Homo sapiens, UniProt O43525+O43526)
T1 construct: expressed in transfected cells; host or cells: HEK-293, stably transfected
Test: Thallium flux assay for KCNQ channel blockers (FLIPR, BTC dye)
Assay type: cell-based
Conditions: Table 2; thallium flux, HEK-293
Outline: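 FLIPR thallium flux readout (BTC dye, 2 μM AM ester) in stably transfected KCNQ HEK-293 cells, chloride-free HEPES buffer pH 7.3, Tl2SO4 stimulus. IC50s were fitted with a single-site logistic equation across 10 points at 1:3 dilutions, defined as 50% of positive-control block; minimal active concentration meant signal ≥4 SD over DMSO controls.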

T1 sequence (O43526 whole entry): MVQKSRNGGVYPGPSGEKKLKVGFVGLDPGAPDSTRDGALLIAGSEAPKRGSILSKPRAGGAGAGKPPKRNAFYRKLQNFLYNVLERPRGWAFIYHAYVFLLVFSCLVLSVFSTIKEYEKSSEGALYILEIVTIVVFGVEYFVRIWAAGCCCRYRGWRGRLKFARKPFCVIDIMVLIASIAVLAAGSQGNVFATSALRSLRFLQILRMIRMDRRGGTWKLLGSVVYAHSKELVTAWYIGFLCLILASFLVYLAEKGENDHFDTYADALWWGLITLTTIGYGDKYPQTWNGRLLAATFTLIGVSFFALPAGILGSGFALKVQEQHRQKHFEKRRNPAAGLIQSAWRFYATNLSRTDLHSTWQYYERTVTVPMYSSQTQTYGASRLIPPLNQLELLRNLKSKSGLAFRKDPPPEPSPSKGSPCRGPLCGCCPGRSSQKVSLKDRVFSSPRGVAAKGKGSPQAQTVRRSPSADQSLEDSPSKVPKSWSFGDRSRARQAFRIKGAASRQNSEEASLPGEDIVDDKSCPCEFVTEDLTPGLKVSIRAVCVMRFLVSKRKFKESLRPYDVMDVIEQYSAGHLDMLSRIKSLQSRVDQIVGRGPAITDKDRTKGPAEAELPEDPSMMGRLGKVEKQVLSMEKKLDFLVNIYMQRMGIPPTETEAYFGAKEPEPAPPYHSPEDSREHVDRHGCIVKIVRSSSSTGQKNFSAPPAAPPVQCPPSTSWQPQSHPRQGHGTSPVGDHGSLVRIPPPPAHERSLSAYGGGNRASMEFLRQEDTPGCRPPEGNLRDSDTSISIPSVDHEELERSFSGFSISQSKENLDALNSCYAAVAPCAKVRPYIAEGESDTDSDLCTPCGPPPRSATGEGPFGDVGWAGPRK
T1 sequence (O43525 whole entry): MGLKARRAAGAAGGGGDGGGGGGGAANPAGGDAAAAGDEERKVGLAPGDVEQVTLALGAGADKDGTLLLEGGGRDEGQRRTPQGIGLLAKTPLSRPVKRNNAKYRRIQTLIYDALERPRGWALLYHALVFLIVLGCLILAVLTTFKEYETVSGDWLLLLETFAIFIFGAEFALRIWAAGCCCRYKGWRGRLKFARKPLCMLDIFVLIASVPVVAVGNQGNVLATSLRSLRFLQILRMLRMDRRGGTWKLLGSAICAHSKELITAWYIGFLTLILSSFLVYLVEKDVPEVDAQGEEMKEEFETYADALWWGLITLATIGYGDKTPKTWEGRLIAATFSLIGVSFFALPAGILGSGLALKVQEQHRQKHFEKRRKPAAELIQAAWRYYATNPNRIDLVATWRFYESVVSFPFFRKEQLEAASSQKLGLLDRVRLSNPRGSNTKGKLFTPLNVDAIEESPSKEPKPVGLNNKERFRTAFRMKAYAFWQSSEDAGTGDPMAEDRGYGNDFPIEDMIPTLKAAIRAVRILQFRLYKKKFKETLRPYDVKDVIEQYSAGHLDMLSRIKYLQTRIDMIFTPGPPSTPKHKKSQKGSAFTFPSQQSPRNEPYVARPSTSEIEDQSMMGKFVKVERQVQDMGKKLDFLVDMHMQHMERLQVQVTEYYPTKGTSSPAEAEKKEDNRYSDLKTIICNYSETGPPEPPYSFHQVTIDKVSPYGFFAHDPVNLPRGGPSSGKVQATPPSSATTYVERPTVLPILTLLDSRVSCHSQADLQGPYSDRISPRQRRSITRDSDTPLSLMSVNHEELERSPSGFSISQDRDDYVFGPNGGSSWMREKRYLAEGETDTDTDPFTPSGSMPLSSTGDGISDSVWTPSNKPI

`CC1CCCN(c2ncc(C(=O)NCc3cc(F)cc(C(F)(F)F)c3)c(C3(c4ccccc4)CC3)n2)C1` (stereo not drawn) [Example 47, 5-pyrimidinecarboxamide, N-[[3-fluoro-5-(trifluoromethyl)phenyl]methyl]-2-(3-methyl-1-piperidinyl)-4-(1-phenylcyclopropyl)-] showed an EC50 of 41 nM.

Same assay, conditions: Table 3; thallium flux, HEK-293

With `CC1CCN(c2ncc(C(=O)NCc3ccc4c(c3)OCO4)c(C3(c4ccc(Cl)cc4)CCC3)n2)CC1` [Example 58, 5-pyrimidinecarboxamide, N-(1,3-benzodioxol-5-ylmethyl)-4-[1-(4-chlorophenyl)cyclobutyl]-2-(4-methyl-1-piperidinyl)-] the EC50 was 90 nM.

Same assay, conditions: hQ23 cells, thallium flux

Point of comparison: `O=C(NCc1cc(F)cc(C(F)(F)F)c1)c1cnc(NC2CCCC2)nc1C1(c2ccc(Cl)cc2)CCCC1` [Example 196, 5-pyrimidinecarboxamide, 4-[1-(4-chlorophenyl)cyclopentyl]-2-(cyclopentylamino)-N-[[3-fluoro-5-(trifluoromethyl)phenyl]methyl]-], EC50 91 nM. Against it:
- CC1CCN(c2ncc(C(=O)NCc3ccc(Cl)cc3Cl)c(C3(c4ccc(Cl)cc4)CCCC3)n2)CC1 [Example 181, 5-pyrimidinecarboxamide, 4-[1-(4-chlorophenyl)cyclopentyl]-N-[(2,4-dichlorophenyl)methyl]-2-(4-methyl-1-piperidinyl)-] — 9.1-fold lower, 10 nM
- CC1CCN(c2ncc(C(=O)NCc3ccc(C(F)(F)F)cc3)c(C3(c4ccccc4)CCCC3)n2)CC1 [Example 138, 5-pyrimidinecarboxamide, 2-(4-methyl-1-piperidinyl)-4-(1-phenylcyclopentyl)-N-[[4-(trifluoromethyl)phenyl]methyl]-] — 9.1-fold lower, 10 nM
- O=C(c1cnc(NC2CCCC2)nc1C1(c2ccc(Cl)cc2)CCCC1)N1CCc2ccccc2C1 [Example 142, isoquinoline, 2-[[4-[1-(4-chlorophenyl)cyclopentyl]-2-(cyclopentylamino)-5-pyrimidinyl]carbonyl]-1,2,3,4-tetrahydro-] — 5.9-fold higher, 535 nM
- CC(NC(=O)c1cnc(NCCN(C)C)nc1C1(c2ccc(Cl)cc2)CCCC1)c1cccc2ccccc12 (stereo not drawn) [Example 163, 5-pyrimidinecarboxamide, 4-[1-(4-chlorophenyl)cyclopentyl]-2-[[2-(dimethylamino)ethyl]amino]-N-[1-(1-naphthalenyl)ethyl]-] — 7.7-fold higher, 705 nM
- CC1CCN(c2ncc(C(=O)NCc3ccc(Cl)cc3Cl)c(C3(c4ccccc4)CCCC3)n2)CC1 [Example 113, 5-pyrimidinecarboxamide, N-[(2,4-dichlorophenyl)methyl]-2-(4-methyl-1-piperidinyl)-4-(1-phenylcyclopentyl)-] — 9.1-fold lower, 10 nM
- CCC(C)Nc1ncc(C(=O)N(CC)Cc2ccccc2)c(C2(c3ccc(F)cc3)CCCC2)n1 (stereo not drawn) [Example 231, 5-pyrimidinecarboxamide, N-ethyl-4-[1-(4-fluorophenyl)cyclopentyl]-2-[(1-methylpropyl)amino]-N-(phenylmethyl)-] — 8.6-fold higher, 786 nM
- CC1CCCN(c2ncc(C(=O)NCc3cccc4ccccc34)c(C3(c4ccc(Cl)cc4)CCCC3)n2)C1 (stereo not drawn) [Example 169, 5-pyrimidinecarboxamide, 4-[1-(4-chlorophenyl)cyclopentyl]-2-(3-methyl-1-piperidinyl)-N-(1-naphthalenylmethyl)-] — 9.1-fold lower, 10 nM
- O=C(NCc1cccc2ccccc12)c1cnc(NC2CC2)nc1C1(c2ccc(Cl)cc2)CCCC1 [Example 165, 5-pyrimidinecarboxamide, 4-[1-(4-chlorophenyl)cyclopentyl]-2-(cyclopropylamino)-N-(1-naphthalenylmethyl)-] — 6.9-fold higher, 630 nM
- CC(NC(=O)c1cnc(N2CCCC2)nc1C1(c2ccccc2)CCCC1)c1cccc2ccccc12 (stereo not drawn) [Example 96, 5-pyrimidinecarboxamide, N-[1-(1-naphthalenyl)ethyl]-4-(1-phenylcyclopentyl)-2-(1-pyrrolidinyl)-] — 1.6-fold higher, 148 nM
- CC1CCC(Nc2ncc(C(=O)NCc3ccc(C(F)(F)F)cc3)c(C3(c4ccccc4)CCCC3)n2)CC1 (stereo not drawn) [Example 137, 5-pyrimidinecarboxamide, 2-[(4-methylcyclohexyl)amino]-4-(1-phenylcyclopentyl)-N-[[4-(trifluoromethyl)phenyl]methyl]-] — 11-fold higher, 964 nM
- CN(CCc1ccccc1)C(=O)c1cnc(NC2CC2)nc1C1(c2ccc(Cl)cc2)CCCC1 [Example 145, 5-pyrimidinecarboxamide, 4-[1-(4-chlorophenyl)cyclopentyl]-2-(cyclopropylamino)-N-methyl-N-(2-phenylethyl)-] — 9.8-fold higher, 895 nM
- CC1CCC(Nc2ncc(C(=O)N3CCc4ccccc4C3)c(C3(c4ccccc4)CCCC3)n2)CC1 (stereo not drawn) [Example 73, isoquinoline, 1,2,3,4-tetrahydro-2-[[2-[(4-methylcyclohexyl)amino]-4-(1-phenylcyclopentyl)-5-pyrimidinyl]carbonyl]-] — 8.8-fold higher, 798 nM
- CCC(C)Nc1ncc(C(=O)NCc2cccc3ccccc23)c(C2(c3ccccc3)CCCC2)n1 (stereo not drawn) [Example 105, 5-pyrimidinecarboxamide, 2-[(1-methylpropyl)amino]-N-(1-naphthalenylmethyl)-4-(1-phenylcyclopentyl)-] — 6.6-fold higher, 604 nM
- O=C(NCc1ccc(Cl)cc1Cl)c1cnc(N2CCCC2)nc1C1(c2ccccc2)CCCC1 [Example 111, 5-pyrimidinecarboxamide, N-[(2,4-dichlorophenyl)methyl]-4-(1-phenylcyclopentyl)-2-(1-pyrrolidinyl)-] — 2.1-fold higher, 192 nM
- CC1CCCN(c2ncc(C(=O)N(C)CCc3ccccc3)c(C3(c4ccccc4)CCCC3)n2)C1 (stereo not drawn) [Example 80, 5-pyrimidinecarboxamide, N-methyl-2-(3-methyl-1-piperidinyl)-4-(1-phenylcyclopentyl)-N-(2-phenylethyl)-] — 9.7-fold higher, 880 nM

Same assay, conditions: hQ23 cells, thallium flux assay

Point of comparison: `CC1CCCN(c2ncc(C(=O)NC(C)c3ccc(F)cc3)c(C3(c4ccc(F)cc4)CCCC3)n2)C1` (stereo not drawn) [Example 284, 5-pyrimidinecarboxamide, 4-[1-(4-fluorophenyl)cyclopentyl]-N-[1-(4-fluorophenyl)ethyl]-2-(3-methyl-1-piperidinyl)-], EC50 78 nM. Against it:
- CC(NC(=O)c1cnc(N2CCN(C)CC2)nc1C1(c2ccc(F)cc2)CCCC1)c1ccc(F)cc1 (stereo not drawn) [Example 283, 5-pyrimidinecarboxamide, 4-[1-(4-fluorophenyl)cyclopentyl]-N-[1-(4-fluorophenyl)ethyl]-2-(4-methyl-1-piperazinyl)-] — 9.6-fold higher, 752 nM
- CC1CCCN(c2ncc(C(=O)NCc3cccc4ccccc34)c(C3(c4ccc(F)cc4)CCCC3)n2)C1 (stereo not drawn) [Example 250, 5-pyrimidinecarboxamide, 4-[1-(4-fluorophenyl)cyclopentyl]-2-(3-methyl-1-piperidinyl)-N-(1-naphthalenylmethyl)-] — 7.8-fold lower, 10 nM
- CC1CCN(c2ncc(C(=O)NCc3ccc(F)cc3F)c(C3(c4ccc(F)cc4)CCCC3)n2)CC1 [Example 270, 5-pyrimidinecarboxamide, N-[(2,4-difluorophenyl)methyl]-4-[1-(4-fluorophenyl)cyclopentyl]-2-(4-methyl-1-piperidinyl)-] — 1.8-fold higher, 142 nM

Target: mKCNQ2 (Mus musculus, UniProt Q9Z351)
Sequence (Q9Z351 whole entry): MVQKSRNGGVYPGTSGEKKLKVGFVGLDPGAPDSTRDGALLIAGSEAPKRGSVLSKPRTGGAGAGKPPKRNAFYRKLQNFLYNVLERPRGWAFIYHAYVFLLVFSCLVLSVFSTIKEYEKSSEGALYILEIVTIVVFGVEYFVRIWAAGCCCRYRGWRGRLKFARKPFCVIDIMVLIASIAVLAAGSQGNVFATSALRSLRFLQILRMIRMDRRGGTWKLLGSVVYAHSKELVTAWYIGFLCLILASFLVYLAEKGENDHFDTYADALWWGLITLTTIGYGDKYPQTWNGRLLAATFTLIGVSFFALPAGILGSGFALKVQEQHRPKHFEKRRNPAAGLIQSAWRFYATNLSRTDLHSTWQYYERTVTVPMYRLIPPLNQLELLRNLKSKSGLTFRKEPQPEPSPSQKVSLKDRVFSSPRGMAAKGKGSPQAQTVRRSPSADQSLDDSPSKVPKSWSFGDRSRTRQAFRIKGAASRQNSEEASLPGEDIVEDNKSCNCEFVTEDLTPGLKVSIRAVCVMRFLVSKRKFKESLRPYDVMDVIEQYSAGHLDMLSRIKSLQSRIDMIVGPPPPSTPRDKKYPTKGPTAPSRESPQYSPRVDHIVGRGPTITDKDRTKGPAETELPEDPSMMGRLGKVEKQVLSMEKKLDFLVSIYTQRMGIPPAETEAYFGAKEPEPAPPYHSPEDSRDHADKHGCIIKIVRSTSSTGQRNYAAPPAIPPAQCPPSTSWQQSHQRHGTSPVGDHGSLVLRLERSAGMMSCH
Test: KCNQ patch-clamp: two-electrode voltage clamp on Xenopus laevis oocytes injected with mKCNQ2 cRNA
Assay type: cell-based
Conditions: 5 mM TEA, measured at −40 mV membrane voltage, n=112
Method: KCNQ Patch-clamp. Frog oocytes were surgically harvested from mature Xenopus laevis that had been anesthetized with 0.15% 3-aminobenzoic acid ethyl ester (tricaine). Only late stage V and VI oocytes were selected for cRNA injection, and the overlying follicle cell layers were enzymatically removed. Each oocyte was injected with approximately 60 ng of the mKCNQ2 cRNA. Following injection, oocytes were maintained at 17° C. in ND96 medium consisting of (in mM): NaCl, 90; KCl, 1.0; CaCl2, 1.0; MgCl2, 1.0; HEPES, 5.0; (pH 7.5) and supplemented with heat-inactivated horse serum (5%) and penicillin/streptomycin (5%).
Two-electrode voltage clamp techniques were used to record membrane currents; recording commenced 3–7 days following cRNA injection (Gribkoff, V. K., et al., Mol. Pharmacol. 1996, 50(1), 206–217). For recording and compound application, oocytes were placed in a recording chamber and incubated in Modified Barth's Solution (MBS) consisting of (in mM): NaCl, 88; NaHCO3, 2.4; KCI, 1.0; HEPES, 10; MgSO4, 0.82; Ca(NO3)2, 0.33; CaCl2, 0.41; (pH 7.5). Voltage-clamp protocols consisted of a series of 4 second duration depolarizing voltage steps from a holding potential of −90 mV to a maximal potential of +40 mV in 10 mV intervals. A family of outward currents was generated under control conditions for comparison with currents elicited in the presence of an experimental compound. Control or drug solutions were continually introduced into the recording chamber using a gravity-flow system with an in-line electronic valve array. A minimum of 5 oocytes was used for each drug concentration; drug concentrations ranged from 0.001 μM to 10 μM. During a single experiment, an oocyte was exposed to as many as three drug concentrations sequentially administered for 5 minutes each. All experiments ended with a 5 minute application of TEA (5 mM), a non-selective, but effective blocker of KCNQ channels. Typically, 5 mM TEA produced a maximal blockade of outward current when measured at the −40 mV membrane voltage (94.6+/−0.5% inhibition, n=112). In this manner, all drug effects could be presented as a percentage of TEA blockade, controlling for the variable levels of channel expression from oocyte to oocyte. Table 1 discloses data for representative examples. Data are expressed as percent inhibition relative to TEA blockade at a membrane voltage of −40 mV: A>50% TEA blockage at 100 nM, B>50% TEA blockage at 1 μM, C<50% TEA blockage at 1.0 μM.

`CC[N+](CC)(CC)CC` [TEA, reference compound] was tested, and the “maximal blockade of outward current (% inhibition)” value was 94.6+/−0.5%.

Same assay, conditions: percent inhibition relative to 5 mM TEA blockade at a membrane voltage of −40 mV; mKCNQ2 in oocytes

For `CC1CCN(c2ncc(C(=O)NCc3ccc(Cl)cc3Cl)c(C3(c4ccc(Cl)cc4)CCCC3)n2)CC1` [Example 181, 5-pyrimidinecarboxamide, 4-[1-(4-chlorophenyl)cyclopentyl]-N-[(2,4-dichlorophenyl)methyl]-2-(4-methyl-1-piperidinyl)-], the “Percent TEA blockage” value was “A (A > 50% TEA blockage at 100 nM)”.
With `CC1CCN(c2ncc(C(=O)NC(C)c3cccnc3)c(C3(c4ccccc4)CCCC3)n2)CC1` (stereo not drawn) [Example 16, 2-(4-Methyl-piperidin-1-yl)-4-(1-phenyl-cyclopentyl)-pyrimidine-5-carboxylic acid (1-pyridin-3-yl-ethyl)-amide] the “Percent TEA blockage” value was “A (A > 50% TEA blockage at 100 nM)”.
For `CC1CCN(c2ncc(C(=O)NCc3ccc(C(F)(F)F)cc3)c(C3(c4ccccc4)CCCC3)n2)CC1` [Example 138, 5-pyrimidinecarboxamide, 2-(4-methyl-1-piperidinyl)-4-(1-phenylcyclopentyl)-N-[[4-(trifluoromethyl)phenyl]methyl]-], the “Percent TEA blockage” value was “B (B > 50% TEA blockage at 1 μM)”.
With `O=C(NCc1ccc2c(c1)OCO2)c1cnc(N2CCCC2)nc1C1(c2ccccc2)CCCCC1` [Example 299, N-(1,3-benzodioxol-5-ylmethyl)-4-[1-phenylcyclohexyl]-2-(1-pyrrolidinyl)-5-pyrimidinecarboxamide] the “Percent TEA blockage” value was “B (B > 50% TEA blockage at 1 μM)”.

— patent publication US7091202B2, “4-arylspirocycloalkyl-2-aminopyrimidine carboxamide KCNQ potassium channel modulators” (Bristol-Myers Squibb Company, priority 2004, dated 2006)
